Source: patent US20070219159A1, “CYCLODEXTRIN COMPOSITIONS AND METHODS OF TREATING VIRAL INFECTIONS” (priority 2002, published 2007)
Read-outs that look alike come from different tables or passages of the source.

Experiments:
[1] = system: HCV; test: In vitro anti-HCV assay in HCV RNA-replicating cell line AVA5; format: cell-based; settings: HCV
Protocol: (§1) The antiviral activity of test compounds were assayed in the stably HCV RNA-replicating cell line. AVA5, derived by transfection of the human hepatoblastoma cell line, Huh^7 (Blight et al., 2000). Experimental drugs were added to dividing cultures once daily for three days. Media was changed with each addition of compound. Cultures generally started the assays at 50% confluence and reached confluence during the last day of treatment. HCV RNA and cellular β-actin RNA levels were assessed 24 hours after the last dose of compound using dot blot hybridization. Assays were conducted using a single dose of test compound (in triplicate cultures).
(§2) Both HCV and β-actin RNA levels in the treated cultures were expressed as a percentage of the mean levels of RNA detected in untreated cultures. β-actin RNA levels were used both as a measure of toxicity, and to normalize the amount of cellular RNA in each sample. A level of 30% or less HCV RNA (relative to control cultures) was considered to be a positive antiviral effect, and a level of 50% or less β-actin RNA (relative to control cultures) is considered to be a cytotoxic effect.
(§3) Dividing cultures of AVAB cells were treated once daily for three days (media was changed with each addition of compound) with 4 concentrations of test compounds (3 cultures per concentration). A total of 6 untreated control cultures, and triplicate cultures treated with 10, 3, and 1 IU/ml α-interferon (active antiviral with no cytotoxicity), and 100, 10, and 1 μM ribavir ([…]) served as controls. HCV RNA and cellular β-actin FNA levels were assessed 24 hours after the last dose of compound using dot blot hybridization. β-actin RNA levels were used to normalize the amount of cellular RNA in each sample.
(§4) Toxicity analyses were performed on separate plates from those used for the antiviral assays. Cells for the toxicity analyses were cultured and treated with test compounds with the same schedule and under identical culture conditions used for the antiviral evaluations. Each compound was tested at 4 concentrations, each in triplicate cultures. Uptake of neutral red dye was used to determine the relative level of toxicity 24 hours following the last treatment. The absorbance of internalized dye at […] (A510) was used for the quantitative analysis. Values in test cultures were compared to 9 cultures of untreated cells maintained on the same plate as the test cultures.
(§5) Assays similar to those described above were conducted.

[2] = system: HSV-1 strain KOS1.1; test: CPE reduction assay in Vero cells, HSV-1; format: cell-based; settings: HSV-1; final concentrations up to 8 mg/ml
[3] = system: HSV-2 strain MS; test: CPE reduction assay in Vero cells, HSV-2; format: cell-based; settings: HSV-2; final concentrations up to 8 mg/ml
[4] = system: HSV-1; settings: in general 1000-fold less drug than Examples 1-6 and 10
[5] = system: HSV-2; settings: in general 1000-fold less drug than Examples 1-6 and 10
[6] = system: VZV
[7] = system: EBV
[8] = system: HCMV
[9] = system: MCMV
[10] = system: HHV-6
[11] = system: HHV-7
[12] = system: Flu A
[13] = system: Flu B
[14] = system: RSV
[15] = system: PIV
[16] = system: MV
[17] = system: HRV
[18] = system: Ad
[19] = system: Resp syncytial
[20] = system: Rhino
[21] = system: Vaccinia
[22] = system: Cowpox
[23] = system: Measles
[24] = system: VEE
[25] = system: Punta Toro
[26] = system: Pichinde
[27] = system: Yellow fever
[28] = system: West Nile; test: In vitro antiviral screening (Table 1), West Nile
[29] = In vitro anti-HCV assay in HCV RNA-replicating cell line AVA5; format: cell-based; settings: human, AVA5 cells (HCV RNA-replicating Huh7 line); toxicity control, no antiviral activity; read-out: approximate CC90
Protocol: as §1, §2, §3, §4, §5

[30] = HSV-infected cells; cited from earlier work
[31] = system: vaccinia Western Reserve strain (WR); format: cell-based
[32] = system: Vero cells; settings: 48 hours exposure; extrapolated from cell killing graph (FIG. 5)

**Q.** Which “S.I. for HCV” value [1] does the source give for `OC[C@H]1O[C@@H]2O[C@H]3[C@H](O)[C@@H](O)[C@@H](O[C@H]4[C@H](O)[C@@H](O)[C@@H](O[C@H]5[C@H](O)[C@@H](O)[C@@H](O[C@H]6[C@H](O)[C@@H](O)[C@@H](O[C@H]7[C@H](O)[C@@H](O)[C@@H](O[C@H]1[C@H](O)[C@H]2O)O[C@@H]7CO)O[C@@H]6CO)O[C@@H]5CO)O[C@@H]4CO)O[C@@H]3CO` [ACD, α-cyclodextrin] here?
**A.** 0.72

**Q.** What about the “antiviral activity in infected Vero cells” value [2] of the same molecule?
**A.** no significant antiviral activity

**Q.** What about the “antiviral activity in infected Vero cells” value [3] of the same molecule?
**A.** no significant antiviral activity

**Q.** And the “SI = CC50/EC50” value [4]?
**A.** 0

**Q.** What about the “SI = CC50/EC50” value [5] of the same molecule?
**A.** 0

**Q.** And the “SI = CC50/EC50” value [6]?
**A.** 0

**Q.** What about the “SI = CC50/EC50” value [7] of the same molecule?
**A.** >1.5

**Q.** What about the “SI = CC50/EC50” value [8] of the same molecule?
**A.** 0

**Q.** And the “SI = CC50/EC50” value [9]?
**A.** 0

**Q.** What about the “SI = CC50/EC50” value [10] of the same molecule?
**A.** 0

**Q.** What about the “SI = CC50/EC50” value [11] of the same molecule?
**A.** 0

**Q.** And the “SI = CC50/EC50” value [12]?
**A.** 0

**Q.** And the “SI = CC50/EC50” value [13]?
**A.** 0

**Q.** And the “SI = CC50/EC50” value [14]?
**A.** 0

**Q.** And the “SI = CC50/EC50” value [15]?
**A.** 0

**Q.** What about the “SI = CC50/EC50” value [16] of the same molecule?
**A.** 0

**Q.** What about the “SI = CC50/EC50” value [17] of the same molecule?
**A.** 0

**Q.** And the “SI = CC50/EC50” value [18]?
**A.** 0

**Q.** What about the “SI = CC50/EC50” value [19] of the same molecule?
**A.** 0

**Q.** And the “SI = CC50/EC50” value [20]?
**A.** 0

**Q.** What about the “SI = CC50/EC50” value [21] of the same molecule?
**A.** 0

**Q.** What about the “SI = CC50/EC50” value [22] of the same molecule?
**A.** 0

**Q.** What about the “SI = CC50/EC50” value [23] of the same molecule?
**A.** 0

**Q.** What about the “SI = CC50/EC50” value [24] of the same molecule?
**A.** 0

**Q.** What about the “SI = CC50/EC50” value [25] of the same molecule?
**A.** 0

**Q.** And the “SI = CC50/EC50” value [26]?
**A.** 0

**Q.** And the “SI = CC50/EC50” value [27]?
**A.** 0

**Q.** And the “SI = CC50/EC50” value [28]?
**A.** 0

**Q.** Which CC90 at 3 days [29] does the source give for `NC(=O)c1ncn([C@@H]2O[C@H](CO)[C@@H](O)[C@H]2O)n1` [ribavirin, reference compound] here?
**A.** ~100 µM

**Q.** For penciclovir triphosphate, which intracellular half life [30] is on record?
**A.** 12 h

**Q.** Which “S.I. for HCV” value [1] does the source give for methyl-β-cyclodextrin [MBCD] here?
**A.** 1.69

**Q.** And the “anti-vaccinia virus activity (cytopathic effect versus untreated wells)” value ([31]; MBCD 4 to 4.5 mg/ml, β-CD 7.2 mg/ml, pre- and post-infection, 48 hours)?
**A.** much fewer and smaller areas of cytopathic effect

**Q.** And the “concentration at which anti-vaccinia virus activity was observed” value ([31]; flat portion of the cell killing curve)?
**A.** < 4.5 mg/mL

**Q.** And the “SI = CC50/EC50” value ([12]; Flu A)?
**A.** 0

**Q.** And the “SI = CC50/EC50” value [16]?
**A.** 0

**Q.** And the “SI = CC50/EC50” value [24]?
**A.** 0

**Q.** What about the “SI = CC50/EC50” value ([25]; Punta Toro) of the same molecule?
**A.** 0

**Q.** And the “SI = CC50/EC50” value [26]?
**A.** 0

**Q.** What about the “CC50 at 48 hours for Vero cells” value [32] of the same molecule?
**A.** approximately 5.5 mg/ml

**Q.** What about the “SI = CC50/EC50” value [28] of the same molecule?
**A.** 0 (?)
